Consider 27 compounds from patent publication US20250346592A1 (Celgene Corporation, priority 2022, published 2025).

In this test the target is hPAD4 enzyme (Homo sapiens (Human), UniProt Q9UM07). In words: RFMS2 assay (RapidFire mass spectrometry, TSTGGRQGSHH peptide substrate). The format is biochemical. Conditions: 35 nM recombinant human PAD4, 500 μM TSTGGRQGSHH peptide, 30 minutes at room temperature; read-out: RFMS 2 IC50. In short, it runs like this:
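Recombinant human PAD4 (35 nM) with 500 μM TSTGGRQGSHH peptide in HEPES pH 7.4, 200 mM NaCl, 2 mM CaCl2, 5 mM DTT, 1.2% DMSO, 30 min at room temperature; 3-fold compound series, top 20 μM. Quenched with formic acid; substrate and citrullinated product quantified by RapidFire MRM mass spectrometry for IC50.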

For orientation: IC50 means the point on the concentration scale where inhibition reaches its midpoint.

hPAD4 enzyme, sequence (Q9UM07 whole entry): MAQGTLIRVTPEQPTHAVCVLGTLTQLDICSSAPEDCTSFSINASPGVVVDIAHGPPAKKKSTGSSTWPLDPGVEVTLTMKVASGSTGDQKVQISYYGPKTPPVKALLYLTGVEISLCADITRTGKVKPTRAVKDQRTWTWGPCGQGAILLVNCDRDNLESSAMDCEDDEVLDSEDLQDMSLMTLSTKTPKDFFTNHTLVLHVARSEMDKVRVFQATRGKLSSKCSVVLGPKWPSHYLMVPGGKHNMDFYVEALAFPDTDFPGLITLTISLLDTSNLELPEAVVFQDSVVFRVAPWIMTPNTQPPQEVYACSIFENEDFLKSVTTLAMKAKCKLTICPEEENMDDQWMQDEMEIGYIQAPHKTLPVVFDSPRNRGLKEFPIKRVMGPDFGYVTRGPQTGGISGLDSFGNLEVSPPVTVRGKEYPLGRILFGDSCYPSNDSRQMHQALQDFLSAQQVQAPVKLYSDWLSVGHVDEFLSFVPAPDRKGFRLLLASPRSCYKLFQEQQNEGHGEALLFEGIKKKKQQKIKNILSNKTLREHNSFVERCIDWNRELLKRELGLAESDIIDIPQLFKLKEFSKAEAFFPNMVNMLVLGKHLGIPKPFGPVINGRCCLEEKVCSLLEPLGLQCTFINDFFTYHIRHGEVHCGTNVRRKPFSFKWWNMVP

As for `C[C@@H](N)CN1CCc2cc3c(cc2C1=O)nc(-c1cc2ccccc2n1CC(C)(C)O)n3C` [Example 92, (R)-6-(2-aminopropyl)-2-(1-(2-hydroxy-2-methylpropyl)-1H-indol-2-yl)-1-methyl-1,6,7,8-tetrahydro-5H-imidazo[4,5-g]isoquinolin-5-one], the IC50 was greater than 1000 nM.

`Cn1c(-c2cc3ccccc3n2Cc2ccno2)nc2cc3c(cc21)CCN(C[C@H](N)CF)C3=O` [Example 93, (S)-6-(2-amino-3-fluoropropyl)-2-(1-(isoxazol-5-ylmethyl)-1H-indol-2-yl)-1-methyl-1,6,7,8-tetrahydro-5H-imidazo[4,5-g]isoquinolin-5-one]: the IC50 was in the range of 101 to 500 nM.

Take `COCCn1c(-c2nc3cc4c(cc3n2C)CCN(C[C@H](N)CF)C4=O)cc2ccccc21` [Example 94, (S)-6-(2-amino-3-fluoropropyl)-2-(1-(2-methoxyethyl)-1H-indol-2-yl)-1-methyl-1,6,7,8-tetrahydro-5H-imidazo[4,5-g]isoquinolin-5-one]: the IC50 lay in the range of 501 to 1000 nM.

On to `Cn1cc(Cn2c(-c3nc4cc5c(cc4n3C)CCN(C[C@H](N)CF)C5=O)cc3ccccc32)cn1` [Example 95, (S)-6-(2-amino-3-fluoropropyl)-1-methyl-2-(1-((1-methyl-1H-pyrazol-4-yl)methyl)-1H-indol-2-yl)-1,6,7,8-tetrahydro-5H-imidazo[4,5-g]isoquinolin-5-one], for which the IC50 lay in the range of 501 to 1000 nM.

For `Cn1nccc1Cn1c(-c2nc3cc4c(cc3n2C)CCN(C[C@H](N)CF)C4=O)cc2ccccc21` [Example 96, (S)-6-(2-amino-3-fluoropropyl)-1-methyl-2-(1-((1-methyl-1H-pyrazol-5-yl)methyl)-1H-indol-2-yl)-1,6,7,8-tetrahydro-5H-imidazo[4,5-g]isoquinolin-5-one], the concentration for half-maximal inhibition (IC50) is greater than 1000 nM.

Take `Cc1cc(Cn2c(-c3nc4cc5c(cc4n3C)CCN(C[C@H](N)CF)C5=O)cc3ccccc32)on1` [Example 97, (S)-6-(2-amino-3-fluoropropyl)-1-methyl-2-(1-((3-methylisoxazol-5-yl)methyl)-1H-indol-2-yl)-1,6,7,8-tetrahydro-5H-imidazo[4,5-g]isoquinolin-5-one]: the IC50 lay within 101 to 500 nM.

Take `Cn1c(-c2cc3ccccc3n2Cc2ccon2)nc2cc3c(cc21)CCN(C[C@H](N)CF)C3=O` [Example 98, (S)-6-(2-amino-3-fluoropropyl)-2-(1-(isoxazol-3-ylmethyl)-1H-indol-2-yl)-1-methyl-1,6,7,8-tetrahydro-5H-imidazo[4,5-g]isoquinolin-5-one]: the IC50 is greater than 1000 nM.

Take `Cc1nnc(Cn2c(-c3nc4cc5c(cc4n3C)CCN(C[C@H](N)CF)C5=O)cc3ccccc32)o1` [Example 99, (S)-6-(2-amino-3-fluoropropyl)-1-methyl-2-(1-((5-methyl-1,3,4-oxadiazol-2-yl)methyl)-1H-indol-2-yl)-1,6,7,8-tetrahydro-5H-imidazo[4,5-g]isoquinolin-5-one]: the IC50 was greater than 1000 nM.

For `Cc1cc(Cn2c(-c3nc4cc5c(cc4n3C)CCN(C[C@H](N)CF)C5=O)cc3ccccc32)no1` [Example 100, (S)-6-(2-amino-3-fluoropropyl)-1-methyl-2-(1-((5-methylisoxazol-3-yl)methyl)-1H-indol-2-yl)-1,6,7,8-tetrahydro-5H-imidazo[4,5-g]isoquinolin-5-one], the IC50 is greater than 1000 nM.

On to `Cn1c(-c2cc3ccccc3n2CC2CCC2)nc2cc3c(cc21)CCN(C[C@H](N)CF)C3=O` [Example 101, (S)-6-(2-amino-3-fluoropropyl)-2-(1-(cyclobutylmethyl)-1H-indol-2-yl)-1-methyl-1,6,7,8-tetrahydro-5H-imidazo[4,5-g]isoquinolin-5-one], for which the IC50 was 101 to 500 nM.

In the case of `COCCn1c(-c2nc3cc4c(cc3n2C)CCN(C[C@H](N)CF)C4=O)cc2ccc(OC)cc21` [Example 103, (S)-6-(2-amino-3-fluoropropyl)-2-(6-methoxy-1-(2-methoxyethyl)-1H-indol-2-yl)-1-methyl-1,6,7,8-tetrahydro-5H-imidazo[4,5-g]isoquinolin-5-one], the half-inhibitory concentration (IC50) lay within 501 to 1000 nM.

With `COCCn1c(-c2nc3cc4c(cc3n2C)CCN(C[C@H](N)CF)C4=O)cc2ccc(Cl)nc21` [Example 104, (S)-6-(2-amino-3-fluoropropyl)-2-(6-chloro-1-(2-methoxyethyl)-1H-pyrrolo[2,3-b]pyridin-2-yl)-1-methyl-1,6,7,8-tetrahydro-5H-imidazo[4,5-g]isoquinolin-5-one], the IC50 lay within 501 to 1000 nM.

On to `COCCn1c(-c2nc3cc4c(cc3n2C)CCN(C[C@H](N)CF)C4=O)cc2ccc(OC)nc21` [Example 105, (S)-6-(2-amino-3-fluoropropyl)-2-(6-methoxy-1-(2-methoxyethyl)-1H-pyrrolo[2,3-b]pyridin-2-yl)-1-methyl-1,6,7,8-tetrahydro-5H-imidazo[4,5-g]isoquinolin-5-one], for which the IC50 was greater than 1000 nM.

For the compound `COCCn1c(-c2nc3cc4c(cc3n2C)CCN(C[C@H](N)CF)C4=O)cc2cccnc21` [Example 106, (S)-6-(2-amino-3-fluoropropyl)-2-(1-(2-methoxyethyl)-1H-pyrrolo[2,3-b]pyridin-2-yl)-1-methyl-1,6,7,8-tetrahydro-5H-imidazo[4,5-g]isoquinolin-5-one], the IC50 was greater than 1000 nM.

With `CCn1c(-c2nc3cc4c(cc3n2C)CCN(C[C@H](N)CF)C4=O)cc2cccc(OC)c21` [Example 107, (S)-6-(2-amino-3-fluoropropyl)-2-(1-ethyl-7-methoxy-1H-indol-2-yl)-1-methyl-1,6,7,8-tetrahydro-5H-imidazo[4,5-g]isoquinolin-5-one], the half-maximal inhibitory concentration (IC50) lay in the range of 501 to 1000 nM.

In the case of `CCn1c(-c2nc3cc4c(cc3n2C)CCN(C[C@H](N)CF)C4=O)cc2ccc(OC)nc21` [Example 108, (S)-6-(2-amino-3-fluoropropyl)-2-(1-ethyl-6-methoxy-1H-pyrrolo[2,3-b]pyridin-2-yl)-1-methyl-1,6,7,8-tetrahydro-5H-imidazo[4,5-g]isoquinolin-5-one], the IC50 lay within 501 to 1000 nM.

As for `COc1cccc2cc(-c3nc4cc5c(cc4n3C)CCN(C[C@H](N)CF)C5=O)n(C(C)C)c12` [Example 109], the IC50 was greater than 1000 nM.

As for `COCCn1c(-c2nc3cc4c(cc3n2C)CCN(C[C@H](N)CF)C4=O)cc2ccnc(OC)c21` [Example 110, (S)-6-(2-amino-3-fluoropropyl)-2-(7-methoxy-1-(2-methoxyethyl)-1H-pyrrolo[2,3-c]pyridin-2-yl)-1-methyl-1,6,7,8-tetrahydro-5H-imidazo[4,5-g]isoquinolin-5-one], the half-inhibitory concentration (IC50) is greater than 1000 nM.

With `COc1cccc2cc(-c3nc4cc5c(cc4n3C)CCN(C[C@H](N)CF)C5=O)n(Cc3ccno3)c12` [Example 111, (S)-6-(2-amino-3-fluoropropyl)-2-(1-(isoxazol-5-ylmethyl)-7-methoxy-1H-indol-2-yl)-1-methyl-1,6,7,8-tetrahydro-5H-imidazo[4,5-g]isoquinolin-5-one], the IC50 lay within 11 to 100 nM.

As for `COc1ccc2cc(-c3nc4cc5c(cc4n3C)CCN(C[C@H](N)CF)C5=O)n(Cc3ccno3)c2c1` [Example 112, (S)-6-(2-amino-3-fluoropropyl)-2-(1-(isoxazol-5-ylmethyl)-6-methoxy-1H-indol-2-yl)-1-methyl-1,6,7,8-tetrahydro-5H-imidazo[4,5-g]isoquinolin-5-one], the IC50 was in the range of 101 to 500 nM.

On to `COc1cccc2cc(-c3nc4cc5c(cc4n3C)CCN(C[C@H](N)CF)C5=O)n(Cc3cn(C)cn3)c12` [Example 114, (S)-6-(2-amino-3-fluoropropyl)-2-(7-methoxy-1-((1-methyl-1H-imidazol-4-yl)methyl)-1H-indol-2-yl)-1-methyl-1,6,7,8-tetrahydro-5H-imidazo[4,5-g]isoquinolin-5-one], for which the 50% inhibitory concentration (IC50) lay within 501 to 1000 nM.

Regarding `COc1cccc2cc(-c3nc4cc5c(cc4n3C)CCN(C[C@H](N)CF)C5=O)n(Cc3cc[nH]n3)c12` [Example 115, (S)-2-(1-((1H-pyrazol-3-yl)methyl)-7-methoxy-1H-indol-2-yl)-6-(2-amino-3-fluoropropyl)-1-methyl-1,6,7,8-tetrahydro-5H-imidazo[4,5-g]isoquinolin-5-one], the IC50 lay within 101 to 500 nM.

Consider `COc1cccc2cc(-c3nc4cc5c(cc4n3C)CCN(C[C@H](N)CF)C5=O)n(Cc3nnco3)c12` [Example 116, (S)-2-(1-((1,3,4-oxadiazol-2-yl)methyl)-7-methoxy-1H-indol-2-yl)-6-(2-amino-3-fluoropropyl)-1-methyl-1,6,7,8-tetrahydro-5H-imidazo[4,5-g]isoquinolin-5-one], for which the IC50 fell in the range of 101 to 500 nM.

With `COc1cccc2cc(-c3nc4cc5c(cc4n3C)CCN(C[C@H](N)CF)C5=O)n(Cc3cnco3)c12` [Example 117, (S)-6-(2-amino-3-fluoropropyl)-2-(7-methoxy-1-(oxazol-5-ylmethyl)-1H-indol-2-yl)-1-methyl-1,6,7,8-tetrahydro-5H-imidazo[4,5-g]isoquinolin-5-one], the IC50 lay within 101 to 500 nM.

With `COc1cccc2cc(-c3nc4cc5c(cc4n3C)CCN(C[C@H](N)CF)C5=O)n(Cc3ccns3)c12` [Example 118, (S)-6-(2-amino-3-fluoropropyl)-2-(1-(isothiazol-5-ylmethyl)-7-methoxy-1H-indol-2-yl)-1-methyl-1,6,7,8-tetrahydro-5H-imidazo[4,5-g]isoquinolin-5-one], the IC50 was 11 to 100 nM.

As to `COc1cccc2cc(-c3nc4cc5c(cc4n3C)CCN(C[C@H](N)CF)C5=O)n(Cc3ncno3)c12` [Example 120, (S)-2-(1-((1,2,4-oxadiazol-5-yl)methyl)-7-methoxy-1H-indol-2-yl)-6-(2-amino-3-fluoropropyl)-1-methyl-1,6,7,8-tetrahydro-5H-imidazo[4,5-g]isoquinolin-5-one], the IC50 lay within 101 to 500 nM.

As for `Cn1c(-c2cc3cccnc3n2Cc2ccno2)nc2cc3c(cc21)CCN(C[C@H](N)CF)C3=O` [Example 121, (S)-6-(2-amino-3-fluoropropyl)-2-(1-(isoxazol-5-ylmethyl)-1H-pyrrolo[2,3-b]pyridin-2-yl)-1-methyl-1,6,7,8-tetrahydro-5H-imidazo[4,5-g]isoquinolin-5-one], the IC50 was greater than 1000 nM.
